Results published in patent publication US11116804B2, “Modulation of the gut microbiome to treat mental disorders or diseases of the central nervous system” (Holobiome, Inc., priority 2016, dated 2021).
Entries after “also recorded” stand apart in the source; their conditions may differ.

Assays:
E. gabavorous KLE1738 = assay: Growth induction of E. gabavorous by compounds spotted on FAAy plates; assay type: cell-based, Evtepia gabavorous; conditions: 5 μL of stock spotted on FAAy plates spread with E. gabavorous, anaerobic, one week
Experimental: Stocks of each compound (purchased from Sigma, excluding the ATCC Mineral and Vitamin mixes) were prepared dependent on solubility in water at the concentrations shown in FIG. 2G. Five μL of the stocks were then spotted on FAAy plates spread with E. gabavorous, and incubated anaerobically for one week, and any growth was observed.

[1] = in mice; cited from earlier work
[2] = in rodents; cited from earlier work

Question: For NC(=O)CC[C@H](N)C(=O)O [glutamine], which “growth induction of E. gabavorous by spotted compound” value (“growth induction of E. gabavorous” below) (E. gabavorous KLE1738) is on record?
Answer: The value was “only GABA caused growth induction”.

Question: Which “growth induction of E. gabavorous” value (E. gabavorous KLE1738) does the source give for O=C(O)CC(=O)O [malonic acid] here?
Answer: The value was “only GABA caused growth induction”.

Question: Which half-life [1] does the source give for NCCCC(=O)O [GABA, gamma-aminobutyric acid] here?
Answer: The half-life was 17 min.

Question: What about the “growth induction of E. gabavorous” value (E. gabavorous KLE1738) of the same compound?
Answer: Its value is “capable of inducing growth of E. gabavorous KLE1738; also recorded: caused growth induction; also recorded: induced growth”.

Question: What about the “brain efflux rate relative to influx rate” value [2] of the same compound?
Answer: Its value is 17 times.

Question: For C[C@H](N)C(=O)O [alanine], which “growth induction of E. gabavorous” value (E. gabavorous KLE1738) is on record?
Answer: Its value is “only GABA caused growth induction”.

Question: For CC(C)[C@H](N)C(=O)O [valine], which “growth induction of E. gabavorous” value (E. gabavorous KLE1738) is on record?
Answer: The value was “only GABA caused growth induction”.

Question: With C[C@@H](O)[C@H](N)C(=O)O [threonine] as the compound, how does the “growth induction of E. gabavorous” value (E. gabavorous KLE1738) read?
Answer: The value was “only GABA caused growth induction”.

Question: With O=C(O)CCC(=O)O [succinic acid] as the compound, how does the “growth induction of E. gabavorous” value (E. gabavorous KLE1738) read?
Answer: Its value is “only GABA caused growth induction”.

Question: For CC(O)C(=O)O (stereo not shown) [lactic acid], which “growth induction of E. gabavorous” value (E. gabavorous KLE1738) is on record?
Answer: Its value is “only GABA caused growth induction”.
